Reference: patent US12077503B2, “Substituted cyclic amides and their use as herbicides” (FMC CORPORATION, priority 2015, dated 2024)
Where two headings read alike, the source gives them in different places.

Experiments:
Type in all cases: in vivo
[1] = test system: barnyardgrass (Echinochloa crus-galli); test: Test A postemergence; conditions: Echinochloa crus-galli, post-emergence, 240 h; for pest or weed control at 125 g/ha: 125 g ai/ha; for pest or weed control at 500 g/ha: 500 g ai/ha, visual injury, 0 to 100 scale (0 no effect, 100 complete control), approx. 10 d, read-out: Plant response rating, Barnyardgrass
Method in brief: (§1)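 Seeds sprayed preemergence with a directed soil spray, or plants at 2 to 10 cm height and one- to two-leaf stage sprayed postemergence, with test chemicals in a non-phytotoxic solvent mixture containing surfactant, in loam soil–sand blend. Injury rated visually against untreated controls after about 10 d in greenhouse, 0 (no effect) to 100 (complete control).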

[2] = test system: corn (Zea mays); test: Test A postemergence; conditions: Zea mays, post-emergence, 240 h; for plant injury at 125 g/ha: 125 g ai/ha, read-out: Corn plant response rating (0 to 100 scale); for Corn plant response rating (crop injury, 0 = no effect, 100 = complete kill) at 500 g/ha: 500 g ai/ha, visual injury, 0 to 100 scale (0 no effect, 100 complete control), approx. 10 d
Method in brief: as §1

[3] = test system: blackgrass (Alopecurus myosuroides); test: Test A postemergence; conditions: Alopecurus myosuroides, post-emergence, 240 h; for pest or weed control at 125 g/ha: 125 g ai/ha, read-out: Blackgrass plant response rating (0 to 100 scale); for pest or weed control at 500 g/ha: 500 g ai/ha, visual injury, 0 to 100 scale (0 no effect, 100 complete control), approx. 10 d, read-out: Plant response rating, Blackgrass
Method in brief: as §1

[4] = test system: ragweed (common ragweed, Ambrosia elatior); test: Test A postemergence; conditions: Ambrosia artemisiifolia, post-emergence, 240 h; for pest or weed control at 125 g/ha: 125 g ai/ha, read-out: Ragweed plant response rating (0 to 100 scale); for pest or weed control at 500 g/ha: 500 g ai/ha, visual injury, 0 to 100 scale (0 no effect, 100 complete control), approx. 10 d, read-out: Plant response rating, Ragweed
Method in brief: as §1

[5] = test system: Kochia (Kochia scoparia); test: Test A postemergence; conditions: Bassia scoparia, post-emergence, 240 h; for pest or weed control at 125 g/ha: 125 g ai/ha, read-out: Kochia plant response rating (0 to 100 scale); for pest or weed control at 500 g/ha: 500 g ai/ha, visual injury, 0 to 100 scale (0 no effect, 100 complete control), approx. 10 d, read-out: Plant response rating, Kochia
Method in brief: as §1

[6] = test system: giant foxtail (Setaria faberii); test: Test A postemergence; conditions: Setaria faberi, post-emergence, 240 h; for pest or weed control at 125 g/ha: 125 g ai/ha, read-out: Foxtail, Giant plant response rating (0 to 100 scale); for pest or weed control at 500 g/ha: 500 g ai/ha, visual injury, 0 to 100 scale (0 no effect, 100 complete control), approx. 10 d, read-out: Plant response rating, Foxtail, Giant
Method in brief: as §1

[7] = test system: ryegrass, Italian (Italian ryegrass, Lolium multiflorum); test: Test A postemergence; conditions: Lolium multiflorum, post-emergence, 240 h; for pest or weed control at 125 g/ha: 125 g ai/ha, read-out: Ryegrass, Italian plant response rating (0 to 100 scale); for pest or weed control at 500 g/ha: 500 g ai/ha, visual injury, 0 to 100 scale (0 no effect, 100 complete control), approx. 10 d, read-out: Plant response rating, Ryegrass, Italian
Method in brief: as §1

[8] = test system: Galium (catchweed bedstraw, Galium aparine); test: Test A postemergence; conditions: Galium, post-emergence, 240 h; for pest or weed control at 125 g/ha: 125 g ai/ha, read-out: Galium plant response rating (0 to 100 scale); for pest or weed control at 500 g/ha: 500 g ai/ha, visual injury, 0 to 100 scale (0 no effect, 100 complete control), approx. 10 d, read-out: Plant response rating, Galium
Method in brief: as §1

[9] = test system: pigweed (Amaranthus retroflexus); test: Test A postemergence; conditions: Amaranthus retroflexus, post-emergence, 240 h; for pest or weed control at 125 g/ha: 125 g ai/ha, read-out: Pigweed plant response rating (0 to 100 scale); for pest or weed control at 500 g/ha: 500 g ai/ha, visual injury, 0 to 100 scale (0 no effect, 100 complete control), approx. 10 d, read-out: Plant response rating, Pigweed
Method in brief: as §1

[10] = test system: wheat (Triticum aestivum); test: Test A postemergence; conditions: Triticum aestivum, post-emergence, 240 h; for plant injury at 125 g/ha: 125 g ai/ha, read-out: Wheat plant response rating (0 to 100 scale); for plant injury at 500 g/ha: 500 g ai/ha, visual injury, 0 to 100 scale (0 no effect, 100 complete control), approx. 10 d, read-out: Plant response rating, Wheat
Method in brief: as §1

[11] = test system: barnyardgrass (Echinochloa crus-galli); test: Test A preemergence; conditions: Echinochloa crus-galli, pre-emergence, 240 h, preemergence, 0 to 100 scale where 0 is no effect and 100 is complete control, read-out: Barnyardgrass plant response rating; for pest or weed control at 125 g/ha: 125 g ai/ha, visual injury rating, approximately 10 d; for pest or weed control at 500 g/ha: 500 g ai/ha
Method in brief: as §1

[12] = test system: ragweed (common ragweed, Ambrosia elatior); test: Test A preemergence; conditions: Ambrosia artemisiifolia, pre-emergence, 240 h, preemergence, 0 to 100 scale where 0 is no effect and 100 is complete control, read-out: Ragweed plant response rating; for pest or weed control at 125 g/ha: 125 g ai/ha, visual injury rating, approximately 10 d; for pest or weed control at 500 g/ha: 500 g ai/ha
Method in brief: as §1

[13] = test system: Kochia (Kochia scoparia); test: Test A preemergence; conditions: Bassia scoparia, pre-emergence, 240 h, preemergence, 0 to 100 scale where 0 is no effect and 100 is complete control, read-out: Kochia plant response rating; for pest or weed control at 125 g/ha: 125 g ai/ha, visual injury rating, approximately 10 d; for pest or weed control at 500 g/ha: 500 g ai/ha
Method in brief: as §1

[14] = test system: giant foxtail (Setaria faberii); test: Test A preemergence; conditions: Setaria faberi, pre-emergence, 240 h, preemergence, 0 to 100 scale where 0 is no effect and 100 is complete control, read-out: Foxtail, Giant plant response rating; for pest or weed control at 125 g/ha: 125 g ai/ha, visual injury rating, approximately 10 d; for pest or weed control at 500 g/ha: 500 g ai/ha
Method in brief: as §1

[15] = test system: ryegrass, Italian (Italian ryegrass, Lolium multiflorum); test: Test A preemergence; conditions: Lolium multiflorum, pre-emergence, 240 h, preemergence, 0 to 100 scale where 0 is no effect and 100 is complete control, read-out: Ryegrass, Italian plant response rating; for pest or weed control at 125 g/ha: 125 g ai/ha, visual injury rating, approximately 10 d; for pest or weed control at 500 g/ha: 500 g ai/ha
Method in brief: as §1

[16] = test system: pigweed (Amaranthus retroflexus); test: Test A preemergence; conditions: Amaranthus retroflexus, pre-emergence, 240 h, preemergence, 0 to 100 scale where 0 is no effect and 100 is complete control, read-out: Pigweed plant response rating; for pest or weed control at 125 g/ha: 125 g ai/ha, visual injury rating, approximately 10 d; for pest or weed control at 500 g/ha: 500 g ai/ha
[17] = postemergence, visual injury vs untreated controls after approx. 10 d, 0 = no effect, 100 = complete control
[18] = Postemergence, visual rating about 10 d after treatment

Structure (SMILES)	pest or weed control at 500 g/ha ([1]; Postemergence)	Corn plant response rating (crop injury, 0 = no effect, 100 = complete kill) at 500 g/ha ([2]; Postemergence)	pest or weed control at 500 g/ha ([3]; Postemergence)	pest or weed control at 500 g/ha ([4]; Postemergence)	pest or weed control at 500 g/ha ([5]; Postemergence)	pest or weed control at 500 g/ha ([6]; Postemergence)	pest or weed control at 500 g/ha ([7]; Postemergence)	pest or weed control at 500 g/ha ([8]; Postemergence)	pest or weed control at 500 g/ha ([9]; Postemergence)	plant injury at 500 g/ha ([10]; Postemergence)	pest or weed control at 125 g/ha [11]	pest or weed control at 500 g/ha [11]	pest or weed control at 125 g/ha [12]	pest or weed control at 500 g/ha [12]	pest or weed control at 125 g/ha [13]	pest or weed control at 500 g/ha [13]	pest or weed control at 125 g/ha [14]	pest or weed control at 500 g/ha [14]	pest or weed control at 125 g/ha [15]	pest or weed control at 500 g/ha [15]	further results
Cc1cc([C@H]2CNC(=O)[C@@H]2C(=O)Nc2ccccc2S(C)(=O)=O)ccc1Cl [Compound 1246]	80%	40%	40%	60%	20%	20%	0%	60%	20%	40%	60%	80%	40%	60%	60%	80%	50%	70%	0%	50%	pest or weed control at 125 g/ha ([1]; postemergence, visual injury vs untreated controls after approx. 10 d, 0 = no effect, 100 = complete control, read-out: Barnyardgrass plant response rating (0 to 100 scale)): 50%; plant injury at 125 g/ha [2, 17]: 0%; pest or weed control at 125 g/ha [3, 17]: 0%; pest or weed control at 125 g/ha [4, 17]: 10%; pest or weed control at 125 g/ha [5, 17]: 0%; pest or weed control at 125 g/ha [6, 17]: 20%; pest or weed control at 125 g/ha [7, 17]: 0%; pest or weed control at 125 g/ha [8, 17]: 50%; pest or weed control at 125 g/ha [9, 17]: 0%; plant injury at 125 g/ha [10, 17]: 0%; pest or weed control at 125 g/ha [16]: 0%; pest or weed control at 500 g/ha [16]: 0%
Cc1cc(F)cc([C@H]2CNC(=O)[C@@H]2C(=O)Nc2cccc(F)c2C)c1 [Compound 1308]	80%	80%	50%	20%	0%	80%	0%	50%	0%	40%	90%	90%	0%	70%	0%	50%	90%	90%	0%	0%	pest or weed control at 125 g/ha ([1]; Postemergence, visual rating about 10 d after treatment, read-out: Barnyardgrass plant response rating (0 to 100 scale, 0 no effect, 100 complete control)): 80%; plant injury at 125 g/ha [2, 18]: 20%; pest or weed control at 125 g/ha [3, 18]: 30%; pest or weed control at 125 g/ha [4, 18]: 0%; pest or weed control at 125 g/ha [5, 18]: 0%; pest or weed control at 125 g/ha [6, 18]: 20%; pest or weed control at 125 g/ha [7, 18]: 0%; pest or weed control at 125 g/ha [8, 18]: 30%; pest or weed control at 125 g/ha [9, 18]: 0%; plant injury at 125 g/ha [10, 18]: 20%; pest or weed control at 125 g/ha [16]: 0%; pest or weed control at 500 g/ha [16]: 20%
